In patent publication US8461083B2, “Herbicidal compounds” (Syngenta Limited, priority 2008, dated 2013):

Legend:
Format in all cases: in vivo
Setaria faberi (SETFA) [1] = test: Post-emergence herbicidal glasshouse test; details: post-emergence (sprayed after 8 days cultivation), evaluated after 13 days, 100=total damage to plant, 0=no damage to plant; for pest or weed control at 1000 g/ha: Setaria faberi, 312 h, read-out: POST Application SETFA, damage to plant; for POST Application SETFA, damage to plant: 1000 g/ha
Protocol: (§1) Seeds of a variety of test species were sown in standard soil in pots (Alopecurus myosuroides (ALOMY), Setaria faberi (SETFA), Echinochloa crus-galli (ECHCG), Solanum nigrum (SOLNI) and Amaranthus retoflexus (AMARE)). After cultivation for one day (pre-emergence) or after 8 days cultivation (post-emergence) under controlled conditions in a glasshouse (at 24/16° C., day/night; 14 hours light; 65% humidity), the plants were sprayed with an aqueous spray solution derived from the formulation of the technical active ingredient in acetone/water (50:50) solution containing 0.5% Tween 20 (polyoxyethelyene sorbitan monolaurate, CAS RN 9005-64-5). Compounds were applied at 1000 g/ha. The test plants were then grown in a glasshouse under controlled conditions in a glasshouse (at 24/16° C., day/night; 14 hours light; 65% humidity) and watered twice daily. After 13 days for pre and post-emergence, the test was evaluated (100=total damage to plant; 0=no damage to plant).

[2] = test system: Amaranthus retoflexus (AMARE); test: Post-emergence herbicidal glasshouse test; details: post-emergence (sprayed after 8 days cultivation), evaluated after 13 days, 100=total damage to plant, 0=no damage to plant; for pest or weed control at 1000 g/ha: Amaranthus retroflexus, 312 h, read-out: POST Application AMARE, damage to plant; for POST Application AMARE, damage to plant: 1000 g/ha
Protocol: as §1

Solanum nigrum (SOLNI) [3] = test: Post-emergence herbicidal glasshouse test; details: post-emergence (sprayed after 8 days cultivation), evaluated after 13 days, 100=total damage to plant, 0=no damage to plant; for pest or weed control at 1000 g/ha: Solanum nigrum, 312 h, read-out: POST Application SOLNI, damage to plant; for POST Application SOLNI, damage to plant: 1000 g/ha
Protocol: as §1

[4] = test system: Alopecurus myosuroides (ALOMY); test: Post-emergence herbicidal glasshouse test; details: post-emergence (sprayed after 8 days cultivation), evaluated after 13 days, 100=total damage to plant, 0=no damage to plant; for pest or weed control at 1000 g/ha: Alopecurus myosuroides, 312 h, read-out: POST Application ALOMY, damage to plant; for POST Application ALOMY, damage to plant: 1000 g/ha
Protocol: as §1

[5] = test system: Echinochloa crus-galli (ECHCG); test: Post-emergence herbicidal glasshouse test; details: post-emergence (sprayed after 8 days cultivation), evaluated after 13 days, 100=total damage to plant, 0=no damage to plant; for pest or weed control at 1000 g/ha: Echinochloa crus-galli, 312 h, read-out: POST Application ECHCG, damage to plant; for POST Application ECHCG, damage to plant: 1000 g/ha
Protocol: as §1

Setaria faberi (SETFA) [6] = test: Pre-emergence herbicidal glasshouse test; details: pre-emergence (sprayed after one day cultivation), evaluated after 13 days, 100=total damage to plant, 0=no damage to plant; for pest or weed control at 1000 g/ha: Setaria faberi, 312 h, read-out: PRE Application SETFA, damage to plant; for PRE Application SETFA, damage to plant: 1000 g/ha
Protocol: as §1

[7] = test system: Amaranthus retoflexus (AMARE); test: Pre-emergence herbicidal glasshouse test; details: pre-emergence (sprayed after one day cultivation), evaluated after 13 days, 100=total damage to plant, 0=no damage to plant; for pest or weed control at 1000 g/ha: Amaranthus retroflexus, 312 h, read-out: PRE Application AMARE, damage to plant; for PRE Application AMARE, damage to plant: 1000 g/ha
Protocol: as §1

Solanum nigrum (SOLNI) [8] = test: Pre-emergence herbicidal glasshouse test; details: pre-emergence (sprayed after one day cultivation), evaluated after 13 days, 100=total damage to plant, 0=no damage to plant; for pest or weed control at 1000 g/ha: Solanum nigrum, 312 h, read-out: PRE Application SOLNI, damage to plant; for PRE Application SOLNI, damage to plant: 1000 g/ha
Protocol: as §1

[9] = test system: Alopecurus myosuroides (ALOMY); test: Pre-emergence herbicidal glasshouse test; details: pre-emergence (sprayed after one day cultivation), evaluated after 13 days, 100=total damage to plant, 0=no damage to plant; for pest or weed control at 1000 g/ha: Alopecurus myosuroides, 312 h, read-out: PRE Application ALOMY, damage to plant; for PRE Application ALOMY, damage to plant: 1000 g/ha
Protocol: as §1

[10] = test system: Echinochloa crus-galli (ECHCG); test: Pre-emergence herbicidal glasshouse test; details: pre-emergence (sprayed after one day cultivation), evaluated after 13 days, 100=total damage to plant, 0=no damage to plant; for pest or weed control at 1000 g/ha: Echinochloa crus-galli, 312 h, read-out: PRE Application ECHCG, damage to plant; for PRE Application ECHCG, damage to plant: 1000 g/ha
Protocol: as §1

| Compound | pest or weed control at 1000 g/ha (Setaria faberi (SETFA) [1]) [%] | pest or weed control at 1000 g/ha [2] [%] | pest or weed control at 1000 g/ha (Solanum nigrum (SOLNI) [3]) [%] | pest or weed control at 1000 g/ha [4] [%] | pest or weed control at 1000 g/ha [5] [%] | pest or weed control at 1000 g/ha (Setaria faberi (SETFA) [6]) [%] | pest or weed control at 1000 g/ha [7] [%] | pest or weed control at 1000 g/ha (Solanum nigrum (SOLNI) [8]) [%] | pest or weed control at 1000 g/ha [9] [%] | pest or weed control at 1000 g/ha [10] [%] | POST Application SETFA, damage to plant (Setaria faberi (SETFA) [1]) | POST Application AMARE, damage to plant [2] | POST Application SOLNI, damage to plant (Solanum nigrum (SOLNI) [3]) | POST Application ALOMY, damage to plant [4] | POST Application ECHCG, damage to plant [5] | PRE Application SETFA, damage to plant (Setaria faberi (SETFA) [6]) | PRE Application AMARE, damage to plant [7] | PRE Application SOLNI, damage to plant (Solanum nigrum (SOLNI) [8]) | PRE Application ALOMY, damage to plant [9] | PRE Application ECHCG, damage to plant [10] |
| --- | --- | --- | --- | --- | --- | --- | --- | --- | --- | --- | --- | --- | --- | --- | --- | --- | --- | --- | --- | --- |
| Cc1nc2nc(C(F)(F)F)c(C(=O)C3C(=O)CCCC3=O)cc2c(C)c1F [Compound 1.88, 2-[5,7-dimethyl-6-fluoro-2-trifluoromethyl-[1,8]-naphthyridine-3-carbony]-cyclohexane-1,3-dione] | 80 | 100 | 90 | 30 | 90 | 100 | 90 | 100 | 40 | 100 | – | – | – | – | – | – | – | – | – | – |
| O=C1CCCC(=O)C1C(=O)c1cc2cc(F)c(CCF)nc2nc1C(F)(F)F [Compound 1.69] | – | – | – | – | – | – | – | – | – | – | 80 | 90 | 80 | 60 | 80 | 90 | 20 | 100 | 60 | 100 |
| O=C(c1cc2ccc(CCF)nc2nc1C(F)(F)F)C1C(=O)C2CCC(C2)C1=O (centres unmarked) [Compound 3.10] | – | – | – | – | – | – | – | – | – | – | 90 | 100 | 90 | 80 | 90 | 90 | 70 | 100 | 70 | 100 |
| O=C1CCCC(=O)C1C(=O)c1cc2ccc(=O)n(CC(F)F)c2nc1C(F)(F)F [Compound 2.4, 2-{8-(2,2-difluoroethyl)-7-oxo-7,8-dihydro-2-trifluoromethyl-[1,8]-naphthyridine-3-carbony}-cyclohexane-1,3-dione] | – | – | – | – | – | – | – | – | – | – | 80 | 60 | 90 | 60 | 70 | 70 | 90 | 90 | 40 | 90 |
| Cc1ccc2cc(C(=O)C3C(=O)CCCC3=O)c(C(F)(F)Cl)nc2n1 [Compound 1.89, 2-[2-chlorodifluoromethyl-7-methyl [1,8]-naphthyridine-3-carbony]-cyclohexane-1,3-dione] | – | – | – | – | – | – | – | – | – | – | 80 | 100 | 90 | 70 | 90 | 100 | 100 | 100 | 40 | 100 |
| O=C1CCCC(=O)C1C(=O)c1cc2cc(F)c(NCC(F)(F)F)nc2nc1C(F)(F)F [Compound 1.90, 2-[6-fluoro-7-(2,2,2-trifluoroethylamino)-2-trifluoromethyl-[1,8]-naphthyridine-3-carbony]-cyclohexane-1,3-dione] | 90 | 80 | 90 | 80 | 90 | 100 | 100 | 100 | 70 | 100 | – | – | – | – | – | – | – | – | – | – |
| Cn1c(=O)ccc2cc(C(=O)C3C(=O)CCCC3=O)c(C(F)(F)F)nc21 [Compound 2.21, 2-(8-methyl-7-oxo-7,8-dihydro-2-trifluoromethyl-[1,8]-naphthyridine-3-carbony)-cyclohexane-1,3-dione] | 80 | 90 | 80 | 80 | 70 | 100 | 100 | 100 | 90 | 100 | – | – | – | – | – | – | – | – | – | – |
| O=C1CCCC(=O)C1C(=O)c1cc2ccc(=O)n(CCC=C(F)F)c2nc1C(F)(F)F [Compound 2.2, 2-{8-(4,4-difluorobut-3-enyl)-7-oxo-7,8-dihydro-2-trifluoromethyl-[1,8]-naphthyridine-3-carbony}-cyclohexane-1,3-dione] | – | – | – | – | – | – | – | – | – | – | 90 | 100 | 100 | 70 | 90 | 90 | 70 | 90 | 60 | 90 |
| O=C1CCCC(=O)C1C(=O)c1cc2ccc(=O)n(CCc3ccccc3)c2nc1C(F)(F)F [Compound 2.15, 2-{8-(2-phenylethyl)-7-oxo-7,8-dihydro-2-trifluoromethyl-[1,8]-naphthyridine-3-carbonyl}-cyclohexane-1,3-dione] | 90 | 70 | 90 | 40 | 80 | 40 | 30 | 90 | 10 | 90 | – | – | – | – | – | – | – | – | – | – |
| CC(C)(C)C(=O)Cn1c(=O)ccc2cc(C(=O)C3C(=O)CCCC3=O)c(C(F)(F)F)nc21 [Compound 2.7, 2-{8-(3,3-dimethyl-2-oxo-butyl)-7-oxo-7,8-dihydro-2-trifluoromethyl-[1,8]-naphthyridine-3-carbony}-cyclohexane-1,3-dione] | – | – | – | – | – | – | – | – | – | – | 70 | 70 | 100 | 40 | 70 | 40 | 60 | 100 | 30 | 80 |
| CCc1ccc2cc(C(=O)C3C(=O)CCCC3=O)c(C(F)(F)F)nc2n1 [Compound 1.3, 2-[7-ethyl-trifluoromethyl-[1,8]-naphthyridine-3-carbony]-cyclohexane-1,3-dione] | – | – | – | – | – | – | – | – | – | – | 90 | 100 | 90 | 70 | 80 | 80 | 90 | 100 | 80 | 100 |
